The compounds below were run on Ramos cells (assay: Cytotoxicity in Ramos cells (cell death)).
Type: cell-based
Protocol: The compounds listed in Table 7 were tested for cytotoxicity in Ramos cells. The assay was conducted as described in K. M. Johnson et al. Chemistry & Biology 2005, 12, 485-496.
With `CC(C)(C)c1ccccc1NC(=NC(=O)c1ccc(C(F)(F)F)cc1F)Nc1ccc2oc(=O)[nH]c2c1` [Compound I-132] the EC50 was greater than 10 µM. Work on `N#Cc1cccc(C(=O)N=C(Nc2cccc(C(F)(F)F)c2)Nc2ccc3oc(=O)[nH]c3c2)c1` [Compound I-133] yielded an EC50 greater than 10 µM. `Cn1c(=O)oc2cc(NC(=NC(=O)c3ccc(C(F)(F)F)cc3)Nc3ccccc3C(C)(C)C)ccc21` [Compound I-134] gave an EC50 greater than 10 µM. With `O=C(N=C(Nc1cccc(C2CC2)c1)Nc1ccc2oc(=O)[nH]c2c1)c1ccc(C(F)(F)F)cc1` [Compound I-135] the EC50 was greater than 10 µM. Compound `N#Cc1cccc(C(=O)N=C(Nc2cccc(C3CC3)c2)Nc2ccc3oc(=O)[nH]c3c2)c1` [Compound I-136] has an EC50 of less than 10 µM. For `O=C(N=C(Nc1ccc(C2CC2)cc1)Nc1ccc2[nH]c(=O)oc2c1)c1ccc(C(F)(F)F)cc1` [Compound I-137], the EC50 was less than 10 µM. Compound `N#Cc1cccc(C(=O)N=C(Nc2ccc(C3CC3)cc2)Nc2ccc3[nH]c(=O)oc3c2)c1` [Compound I-138] has an EC50 of less than 10 µM. With `O=C(N=C(Nc1ccc2[nH]ncc2c1)Nc1ccccc1C(F)(F)F)c1ccc(Br)cc1` [II-1] the EC50 was less than 10 µM. `O=C(N=C(Nc1ccc2[nH]ncc2c1)Nc1ccccc1C(F)(F)F)c1ccc(Cl)cc1` [II-2] showed an EC50 of less than 10 µM. `O=C(N=C(Nc1ccc2[nH]ncc2c1)Nc1ccccc1C(F)(F)F)c1cccc(Cl)c1` [II-3] gave an EC50 of less than 10 µM. For `O=C(N=C(Nc1ccc2[nH]ncc2c1)Nc1ccccc1C(F)(F)F)c1ccc(F)cc1` [II-4], the EC50 was less than 10 µM. `CC(C)(C)c1ccccc1NC(=NC(=O)c1ccc(Br)cc1)Nc1ccc2[nH]ncc2c1` [II-5] was tested, and the EC50 was less than 10 µM. With `CC(C)(C)c1ccccc1NC(=NC(=O)c1ccc(Cl)cc1)Nc1ccc2[nH]ncc2c1` [II-6] the EC50 was less than 10 µM. `CC(C)(C)c1ccccc1NC(=NC(=O)c1cccc(Cl)c1)Nc1ccc2[nH]ncc2c1` [II-7] was tested, and the EC50 was less than 10 µM. `CC(C)(C)c1ccccc1NC(=NC(=O)c1ccc(F)cc1)Nc1ccc2[nH]ncc2c1` [II-8] gave an EC50 of less than 10 µM. Work on `O=C(N=C(Nc1ccc2ccccc2c1)Nc1ccc2[nH]ncc2c1)c1ccc(Br)cc1` [II-9] yielded an EC50 of less than 10 µM. `O=C(N=C(Nc1ccc2ccccc2c1)Nc1ccc2[nH]ncc2c1)c1ccc(Cl)cc1` [II-10] showed an EC50 of less than 10 µM. Compound `O=C(N=C(Nc1ccc2ccccc2c1)Nc1ccc2[nH]ncc2c1)c1cccc(Cl)c1` [II-11] has an EC50 of less than 10 µM. With `O=C(N=C(Nc1ccc2ccccc2c1)Nc1ccc2[nH]ncc2c1)c1ccc(F)cc1` [II-12] the EC50 was less than 10 µM. With `O=C(N=C(Nc1ccc(-c2ccccc2)cc1)Nc1ccc2[nH]ncc2c1)c1ccc(Br)cc1` [II-13] the EC50 was less than 10 µM. With `O=C(N=C(Nc1ccc(-c2ccccc2)cc1)Nc1ccc2[nH]ncc2c1)c1ccc(Cl)cc1` [II-14] the EC50 was less than 10 µM. Compound `O=C(N=C(Nc1ccc(-c2ccccc2)cc1)Nc1ccc2[nH]ncc2c1)c1cccc(Cl)c1` [II-15] has an EC50 of less than 10 µM. `O=C(N=C(Nc1ccc(-c2ccccc2)cc1)Nc1ccc2[nH]ncc2c1)c1ccc(F)cc1` [II-16] was tested, and the EC50 was less than 10 µM. For `O=C(N=C(Nc1cccc(C(F)(F)F)c1)Nc1ccc2[nH]ncc2c1)c1ccc(C(F)(F)F)cc1` [II-17], the EC50 was less than 10 µM. `CC(C)(C)c1ccccc1NC(=NC(=O)c1ccc(C(F)(F)F)cc1)Nc1ccc2[nH]ncc2c1` [II-18] gave an EC50 of less than 10 µM. Compound `O=C(N=C(Nc1ccc(Cl)cc1)Nc1ccc2[nH]ncc2c1)c1ccc(C(F)(F)F)cc1` [II-19] has an EC50 of less than 10 µM. `O=C(N=C(Nc1cccc(Cl)c1)Nc1ccc2[nH]ncc2c1)c1ccc(C(F)(F)F)cc1` [II-20] gave an EC50 of less than 10 µM. In the case of `O=C(N=C(Nc1cccc(C(F)(F)F)c1)Nc1ccc2[nH]ncc2c1)c1ccc(Cl)cc1` [II-21], the EC50 is reported as less than 10 µM. In the case of `O=C(N=C(Nc1ccc(Cl)cc1)Nc1ccc2[nH]ncc2c1)c1ccc(Cl)cc1` [II-22], the EC50 is reported as less than 10 µM. With `O=C(N=C(Nc1cccc(Cl)c1)Nc1ccc2[nH]ncc2c1)c1ccc(Cl)cc1` [II-23] the EC50 was less than 10 µM. Compound `O=C(N=C(NCCc1c[nH]cn1)Nc1ccccc1C(F)(F)F)c1ccc(Br)cc1` [III-1] has an EC50 greater than 10 µM. For `O=C(N=C(NCCc1c[nH]cn1)Nc1ccccc1C(F)(F)F)c1ccc(Cl)cc1` [III-2], the EC50 was greater than 10 µM. Work on `O=C(N=C(NCCc1c[nH]cn1)Nc1ccccc1C(F)(F)F)c1ccc(F)cc1` [III-3] yielded an EC50 greater than 10 µM. `CC(C)(C)c1ccccc1NC(=NC(=O)c1ccc(Br)cc1)NCCc1c[nH]cn1` [III-4] gave an EC50 of less than 10 µM. With `CC(C)(C)c1ccccc1NC(=NC(=O)c1ccc(Cl)cc1)NCCc1c[nH]cn1` [III-5] the EC50 was less than 10 µM. Work on `CC(C)(C)c1ccccc1NC(=NC(=O)c1cccc(Cl)c1)NCCc1c[nH]cn1` [III-6] yielded an EC50 of less than 10 µM. `CC(C)(C)c1ccccc1NC(=NC(=O)c1ccc(F)cc1)NCCc1c[nH]cn1` [III-7] was tested, and the EC50 was greater than 10 µM. With `O=C(N=C(NCCc1c[nH]cn1)Nc1ccc2ccccc2c1)c1ccc(Br)cc1` [III-8] the EC50 was less than 10 µM. Compound `O=C(N=C(NCCc1c[nH]cn1)Nc1ccc2ccccc2c1)c1ccc(Cl)cc1` [III-9] has an EC50 greater than 10 µM. For `O=C(N=C(NCCc1c[nH]cn1)Nc1ccc2ccccc2c1)c1cccc(Cl)c1` [III-10], the EC50 was less than 10 µM. `O=C(N=C(NCCc1c[nH]cn1)Nc1ccc2ccccc2c1)c1ccc(F)cc1` [III-11] showed an EC50 greater than 10 µM.
